Data reported in ChEMBL document CHEMBL1156915, “Synthesis of new thienyl ring containing HIV-1 protease inhibitors: promising preliminary pharmacological evaluation against recombinant HIV-1 proteases” (J Med Chem, 2010).

Experiments:
Protease = Protease (Human immunodeficiency virus 1, UniProt Q9YQ12); experiment: Inhibition of recombinant wild type HIV1 protease assessed as hydrolysis of fluorogenic substrate
[1] = target: Protease (Human immunodeficiency virus 1) (UniProt Q9YQ12); experiment: Inhibition of recombinant HIV1 protease assessed as residual activity at 10 nM by fluorogenic substrate assay; values are per cent of control
Sequence of Protease (Human immunodeficiency virus 1) (Q9YQ12 as listed by the source): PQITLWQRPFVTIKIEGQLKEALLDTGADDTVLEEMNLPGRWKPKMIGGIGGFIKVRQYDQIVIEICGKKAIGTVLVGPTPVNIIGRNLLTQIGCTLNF

[2] = tested on: Human immunodeficiency virus type 1 protease (Human immunodeficiency virus 1), Q72874 [V82A]; experiment: Inhibition of recombinant HIV1 protease V82A mutant assessed as residual activity at 1 nM by fluorogenic substrate assay; values are per cent of control
[3] = tested on: Human immunodeficiency virus type 1 protease (Human immunodeficiency virus 1), Q72874 [V32I]; experiment: Inhibition of recombinant HIV1 protease V32I mutant assessed as residual activity at 10 nM by fluorogenic substrate assay; values are per cent of control
[4] = target: Protease (Human immunodeficiency virus 1) (UniProt Q9YQ12); experiment: Inhibition of recombinant wild type HIV1 protease assessed as residual activity at 1 nM by fluorogenic substrate assay; values are per cent of control
[5] = tested on: Human immunodeficiency virus type 1 protease (Human immunodeficiency virus 1), Q72874 [V32I]; experiment: Inhibition of recombinant HIV1 protease V32I mutant assessed as residual activity at 1 nM by fluorogenic substrate assay; values are per cent of control

Sequence of Protease (Q9YQ12 whole entry): as the sequence (Q9YQ12 as listed by the source) above

IC50 (Protease) | SMILES | also measured
15 nM | Cc1c(O)cccc1C(=O)N[C@@H](Cc1cc2ccccc2s1)[C@H](O)CN1C[C@H]2CCCC[C@H]2C[C@H]1C(=O)NC(C)(C)C | –
6 nM | Cc1c(O)cccc1C(=O)N[C@@H](Cc1cc(-c2ccccc2)cs1)[C@H](O)CN1C[C@H]2CCCC[C@H]2C[C@H]1C(=O)NC(C)(C)C | –
30000 nM | Cc1c(O)cccc1C(=O)N[C@@H](c1cccs1)[C@H](O)CN1C[C@H]2CCCC[C@H]2C[C@H]1C(=O)NC(C)(C)C | –
1.9 nM | Cc1c(O)cccc1C(=O)N[C@@H](CSc1ccccc1)[C@H](O)CN1C[C@H]2CCCC[C@H]2C[C@H]1C(=O)NC(C)(C)C | –
4000 nM | Cc1c(O)cccc1C(=O)N[C@@H](c1cc(-c2ccccc2)cs1)[C@H](O)CN1C[C@H]2CCCC[C@H]2C[C@H]1C(=O)NC(C)(C)C | –

The remaining lines, values behind:

SMILES | IC50 (Protease) | also measured
CC(C)(C)NC(=O)[C@@H]1C[C@@H]2CCCC[C@@H]2CN1C[C@@H](O)[C@@H](NC(=O)[C@H](CC(N)=O)NC(=O)c1ccc2ccccc2n1)c1cccs1 | 5000 nM | –
Cc1c(O)cccc1C(=O)N[C@@H](Cc1cccs1)[C@H](O)CN1C[C@H]2CCCC[C@H]2C[C@H]1C(=O)NC(C)(C)C | 2.9 nM | residual activity [1]: 5%; residual activity [2]: 60%; residual activity [3]: 32%; residual activity [4]: 34%; residual activity [5]: 97%
CC(C)(C)NC(=O)[C@@H]1C[C@@H]2CCCC[C@@H]2CN1C[C@@H](O)[C@@H](NC(=O)[C@H](CC(N)=O)NC(=O)c1ccc2ccccc2n1)c1cc(-c2ccccc2)cs1 | 1500 nM | –
CC(C)(C)NC(=O)[C@@H]1C[C@@H]2CCCC[C@@H]2CN1C[C@@H](O)[C@H](Cc1cc(-c2ccccc2)cs1)NC(=O)C(CC(N)=O)NC(=O)c1ccc2ccccc2n1 (single isomer, unassigned) | 1.2 nM | –
CC(C)(C)NC(=O)[C@@H]1C[C@@H]2CCCC[C@@H]2CN1C[C@@H](O)[C@H](Cc1cccs1)NC(=O)C(CC(N)=O)NC(=O)c1ccc2ccccc2n1 (single isomer, unassigned) | 21 nM | –
CC(C)(C)NC(=O)[C@@H]1C[C@@H]2CCCC[C@@H]2CN1C[C@@H](O)[C@H](Cc1cc2ccccc2s1)NC(=O)C(CC(N)=O)NC(=O)c1ccc2ccccc2n1 (single isomer, unassigned) | 0.6 nM | residual activity [2]: 37%; residual activity [4]: 53%
